The source of these data is ChEMBL document CHEMBL6096734, “Design, Synthesis and Anti-Inflammatory Evaluation of 3-Substituted 5-Amidobenzoate Derivatives as Novel P2Y14 Receptor Antagonists via Structure-Guided Molecular Hybridization” (J Med Chem, 2025).

Bounds are passed on as bounds.

By Tmax is commonly meant the time at which the peak concentration occurs. What is called Cmax is the maximum level reached in the sampled fluid or tissue. In general, AUC refers to concentration integrated over time. As usually defined, the CL/F is clearance divided by bioavailability, as obtained after extravascular dosing. Usually half-life stands for the time needed for the level to fall by half in the phase considered. Usually clearance stands for the volume of plasma or blood freed of the substance per unit of time. Usually AUC(0-t) stands for exposure summed from dosing to a finite time, without extrapolation to infinity. As usually defined, the IC50 is the point on the concentration scale where inhibition reaches its midpoint. A word on the bioavailability: it is dose-corrected exposure relative to a reference, in per cent.

Data set [1] can be described thus: Tmax in male Sprague-Dawley rat at 10 mg/kg, iv measured upto 24 hrs. It is filed as ADME, organism-based. To be noted: in vivo.
Data set [2] can be described thus: Cmax in male Sprague-Dawley rat at 10 mg/kg, iv measured upto 24 hrs. The class given is ADME, organism-based. As to conditions: in vivo.
Data set [3] is described as follows: AUC (0 to 24 hrs) in male Sprague-Dawley rat at 10 mg/kg, iv measured upto 24 hrs. It is filed as ADME, organism-based. As to conditions: in vivo.
The nature of data set [4]: Half life in male Sprague-Dawley rat at 10 mg/kg, iv measured upto 24 hrs. The class given is ADME, organism-based. As to conditions: in vivo.
Data set [5] in a line: Cmax in male Sprague-Dawley rat at 20 mg/kg, po measured upto 24 hrs. The class given is ADME, organism-based. To be noted: in vivo.
A short description of data set [6]: AUC (0 to 24 hrs) in male Sprague-Dawley rat at 20 mg/kg, po measured upto 24 hrs. The class given is ADME, organism-based. As to conditions: in vivo.
In data set [7] the test system is RAW264.7. Put plainly: Induction of pyroptosis in LPS induced mouse RAW264.7 cells by caspase-1/PI staining based flow cytometry (reference value: 49.6 %). The class given is functional. (In flow cytometry, cells or beads pass a laser one at a time.)
Data set [8] is described as follows: Tmax in male Sprague-Dawley rat at 20 mg/kg, po measured upto 24 hrs. To be noted: in vivo. It is filed as ADME, organism-based.
In data set [9] the test system is RAW264.7. Put plainly: Anti-inflammatory activity in LPS-induced ALI in mouse RAW264.7 cells assessed as decrease in intracellular ROS level by DCFH-DA staining based flow cytometry analysis (reference value: 91.2%). The class given is functional. Set-up: scale not given: the % may be the effect or the level left.
A short description of data set [10]: Clearance in male Sprague-Dawley rat at 20 mg/kg, po measured upto 24 hrs. The class given is ADME, organism-based. To be noted: in vivo.
Data set [11] can be described thus: Oral bioavailability in male Sprague-Dawley rat at 20 mg/kg measured upto 24 hrs. It is filed as ADME, organism-based. To be noted: in vivo.
Data set [12] is described as follows: Half life in male Sprague-Dawley rat at 20 mg/kg, po measured upto 24 hrs. It is filed as ADME, organism-based. As to conditions: in vivo.
The nature of data set [13]: Clearance in male Sprague-Dawley rat at 10 mg/kg, iv measured upto 24 hrs. The class given is ADME, organism-based. To be noted: in vivo.
Data set [14] is described as follows: Metabolic stability in human liver microsomes assessed as intrinsic clearance at […] measured upto 45 mins in presence of NADPH by LC-MS analysis. As to conditions: read-out: CLH. The class given is ADME, Microsome.
Data set [15] relates to RAW264.7. Put plainly: Cytotoxicity in mouse Raw264.7 cells at <80 uM incubated for 24 hrs by SRB method. It is filed as toxicity, cell-based. To be noted: raw264.7, 24 h. (The SRB assay estimates cell density from bound dye.)
Data set [16] in a line: Stability of the compound in stimulated gastric fluid assessed as half life. The class given is physicochemical. As to conditions: simulated gastric fluid.
Data set [17] deals with P2Y purinoceptor 12 (Homo sapiens, UniProt Q9H244). Put plainly: Antagonist activity at human P2Y12R stably expressed in HEK293 cells assessed as inhibition of 2-MeSADP-induced IP3 accumulation preincubated with compound for 30 mins followed by 2-MeSADP addition by ELISA. It is filed as functional, cell-based. In general terms: In an ELISA, binding on a coated surface is turned into a signal by an enzyme label.
Sequence of P2Y purinoceptor 12 (Q9H244 whole entry): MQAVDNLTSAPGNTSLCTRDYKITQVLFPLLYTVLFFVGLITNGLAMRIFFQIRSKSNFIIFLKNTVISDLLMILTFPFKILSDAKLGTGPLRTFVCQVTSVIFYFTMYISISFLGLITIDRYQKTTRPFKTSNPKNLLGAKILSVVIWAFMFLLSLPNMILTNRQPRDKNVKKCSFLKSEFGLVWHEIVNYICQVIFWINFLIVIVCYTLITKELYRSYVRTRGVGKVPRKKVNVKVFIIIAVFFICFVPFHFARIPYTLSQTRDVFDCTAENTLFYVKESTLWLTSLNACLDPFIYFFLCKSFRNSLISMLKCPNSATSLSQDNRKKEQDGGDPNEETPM

In data set [18] the target is Cytochrome P450 2D6 (Homo sapiens, UniProt P10635). Description: Inhibition of CYP2D6 in human liver microsomes using dextromethorphan as substrate measured after 30 mins by LC/MS analysis. It is filed as ADME, Microsome.
Sequence of Cytochrome P450 2D6 (P10635 whole entry): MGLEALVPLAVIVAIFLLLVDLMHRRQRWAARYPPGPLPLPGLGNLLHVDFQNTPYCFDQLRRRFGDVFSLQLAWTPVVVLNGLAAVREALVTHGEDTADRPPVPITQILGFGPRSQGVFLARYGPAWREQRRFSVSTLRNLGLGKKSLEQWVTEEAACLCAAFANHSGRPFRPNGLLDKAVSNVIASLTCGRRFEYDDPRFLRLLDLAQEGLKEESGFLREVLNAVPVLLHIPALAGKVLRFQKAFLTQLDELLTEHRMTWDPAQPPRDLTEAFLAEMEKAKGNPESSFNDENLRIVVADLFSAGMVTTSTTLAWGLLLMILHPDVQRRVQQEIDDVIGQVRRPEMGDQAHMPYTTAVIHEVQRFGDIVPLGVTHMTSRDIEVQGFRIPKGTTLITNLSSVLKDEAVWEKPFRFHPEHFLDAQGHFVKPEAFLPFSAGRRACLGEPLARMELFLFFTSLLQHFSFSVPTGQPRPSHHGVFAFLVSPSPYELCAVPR
Data set [19] concerns the target P2Y purinoceptor 1 (Homo sapiens, UniProt P47900). Put plainly: Antagonist activity at human P2Y1R stably expressed in HEK293 cells assessed as inhibition of ADP-induced IP3 accumulation preincubated with compound for 30 mins followed by ADP addition by ELISA method. The class given is functional, cell-based.
Data set [20] in a line: Metabolic stability in human liver microsomes assessed as half life at […] measured upto 45 mins in presence of NADPH by LC-MS analysis. The class given is ADME, Microsome.
Data set [21] concerns the target Cytochrome P450 2C9 (Homo sapiens, UniProt P11712). Description: Inhibition of CYP2C9 in human liver microsomes using diclofenac as substrate measured after 30 mins by LC/MS analysis. The class given is ADME, Microsome.
Data set [22] deals with Cytochrome P450 3A4 (Homo sapiens, UniProt P08684). Description: Inhibition of CYP3A4 in human liver microsomes using midazolam as substrate measured after 30 mins by LC/MS analysis. It is filed as ADME, Microsome.
Sequence of Cytochrome P450 3A4 (P08684 whole entry): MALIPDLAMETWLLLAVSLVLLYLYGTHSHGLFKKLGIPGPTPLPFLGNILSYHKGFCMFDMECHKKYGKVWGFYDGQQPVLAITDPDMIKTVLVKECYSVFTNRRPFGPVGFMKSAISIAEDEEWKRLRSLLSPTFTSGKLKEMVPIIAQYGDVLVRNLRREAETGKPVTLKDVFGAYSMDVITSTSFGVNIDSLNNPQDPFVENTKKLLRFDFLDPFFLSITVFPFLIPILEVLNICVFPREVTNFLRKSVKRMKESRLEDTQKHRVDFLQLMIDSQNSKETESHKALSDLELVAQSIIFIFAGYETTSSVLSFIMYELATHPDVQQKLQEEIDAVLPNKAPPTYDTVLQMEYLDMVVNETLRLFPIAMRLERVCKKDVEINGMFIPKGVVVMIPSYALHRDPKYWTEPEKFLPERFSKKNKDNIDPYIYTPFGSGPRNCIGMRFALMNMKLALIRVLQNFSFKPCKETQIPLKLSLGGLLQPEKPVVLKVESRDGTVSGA
Data set [23] addresses P2Y purinoceptor 6 (Homo sapiens, UniProt Q15077). Put plainly: Antagonist activity at human P2Y6R stably expressed in HEK293 cells assessed as inhibition of UDP-induced IP3 accumulation preincubated with compound for 30 mins followed by UDP addition by ELISA. The class given is functional, cell-based.
The target of data set [24] is P2Y purinoceptor 4 (Homo sapiens, UniProt P51582). Put plainly: Antagonist activity at human P2Y4R stably expressed in HEK293 cells assessed as inhibition of UTP-induced IP3 accumulation preincubated with compound for 30 mins followed by UTP addition by ELISA. The class given is functional, cell-based.
Sequence of P2Y purinoceptor 4 (P51582 whole entry): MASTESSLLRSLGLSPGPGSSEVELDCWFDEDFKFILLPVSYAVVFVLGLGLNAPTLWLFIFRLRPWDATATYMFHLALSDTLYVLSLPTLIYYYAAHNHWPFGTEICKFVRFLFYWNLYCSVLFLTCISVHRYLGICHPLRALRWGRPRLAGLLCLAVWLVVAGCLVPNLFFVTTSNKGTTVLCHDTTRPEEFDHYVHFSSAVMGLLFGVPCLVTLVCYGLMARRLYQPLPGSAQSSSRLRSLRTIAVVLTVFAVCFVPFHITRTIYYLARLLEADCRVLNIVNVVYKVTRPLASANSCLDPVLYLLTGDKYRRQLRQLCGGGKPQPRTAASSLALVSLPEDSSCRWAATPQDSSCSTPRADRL
Data set [25] in a line: Stability of the compound in stimulated intestinal fluid assessed as half life. It is filed as physicochemical. As to conditions: simulated intestinal fluid.
For data set [26], the target named is Cytochrome P450 2C19 (Homo sapiens, UniProt P33261). Description: Inhibition of CYP2C19 in human liver microsomes using mephenytoin as substrate measured after 30 mins by LC/MS analysis. It is filed as ADME, Microsome.
Sequence of Cytochrome P450 2C19 (P33261 whole entry): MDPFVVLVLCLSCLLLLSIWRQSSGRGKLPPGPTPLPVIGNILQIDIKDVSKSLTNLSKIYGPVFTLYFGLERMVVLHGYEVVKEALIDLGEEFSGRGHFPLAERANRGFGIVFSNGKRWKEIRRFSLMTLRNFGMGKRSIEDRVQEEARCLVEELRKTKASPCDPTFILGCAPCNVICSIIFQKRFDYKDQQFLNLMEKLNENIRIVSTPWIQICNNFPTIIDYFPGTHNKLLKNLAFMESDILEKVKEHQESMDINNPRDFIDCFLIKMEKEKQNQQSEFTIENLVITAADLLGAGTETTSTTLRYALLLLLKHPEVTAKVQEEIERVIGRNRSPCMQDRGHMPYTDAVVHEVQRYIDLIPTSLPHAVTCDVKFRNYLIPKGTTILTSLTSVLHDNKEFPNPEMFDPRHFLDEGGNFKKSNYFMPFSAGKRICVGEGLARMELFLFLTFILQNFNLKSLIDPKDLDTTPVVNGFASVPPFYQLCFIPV
For data set [27], the target named is P2Y purinoceptor 2 (Homo sapiens, UniProt P41231). Description: Antagonist activity at human P2Y2R stably expressed in HEK293 cells assessed as inhibition of UTP-induced IP3 accumulation preincubated with compound for 30 mins followed by UTP addition by ELISA method. It is filed as functional, cell-based.
Sequence of P2Y purinoceptor 2 (P41231 whole entry): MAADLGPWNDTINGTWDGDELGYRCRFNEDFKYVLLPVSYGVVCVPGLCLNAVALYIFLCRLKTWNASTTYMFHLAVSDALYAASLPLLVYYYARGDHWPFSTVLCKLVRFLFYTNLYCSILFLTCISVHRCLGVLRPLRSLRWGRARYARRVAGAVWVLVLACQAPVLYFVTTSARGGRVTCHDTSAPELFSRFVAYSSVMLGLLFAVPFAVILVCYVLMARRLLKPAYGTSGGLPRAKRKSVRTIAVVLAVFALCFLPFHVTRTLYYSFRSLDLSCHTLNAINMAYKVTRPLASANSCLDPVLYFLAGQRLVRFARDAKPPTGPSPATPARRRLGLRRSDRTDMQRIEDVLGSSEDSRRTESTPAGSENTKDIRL
In data set [28] the target is T1, Cytochrome P450 1A2 (Homo sapiens, UniProt P05177).
T1 sequence (P05177 whole entry): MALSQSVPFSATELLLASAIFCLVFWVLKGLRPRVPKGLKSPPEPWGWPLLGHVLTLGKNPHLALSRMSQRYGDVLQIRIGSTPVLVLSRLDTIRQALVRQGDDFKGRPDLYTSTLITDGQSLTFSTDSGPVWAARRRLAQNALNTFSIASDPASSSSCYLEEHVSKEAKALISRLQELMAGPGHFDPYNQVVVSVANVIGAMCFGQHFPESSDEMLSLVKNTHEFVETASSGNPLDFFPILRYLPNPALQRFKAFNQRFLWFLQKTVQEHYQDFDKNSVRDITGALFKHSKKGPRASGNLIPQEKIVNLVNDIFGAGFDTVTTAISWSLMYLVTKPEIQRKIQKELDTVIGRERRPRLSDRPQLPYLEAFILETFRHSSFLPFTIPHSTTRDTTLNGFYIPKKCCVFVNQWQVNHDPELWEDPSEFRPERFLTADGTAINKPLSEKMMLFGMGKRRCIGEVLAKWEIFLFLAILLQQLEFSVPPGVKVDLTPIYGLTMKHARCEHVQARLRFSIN
Description: Inhibition of CYP1A2 in human liver microsomes using phenacetin as substrate measured after 30 mins by LC/MS analysis. It is filed as ADME, Microsome.

Sequence of Cytochrome P450 2C9 (P11712 whole entry): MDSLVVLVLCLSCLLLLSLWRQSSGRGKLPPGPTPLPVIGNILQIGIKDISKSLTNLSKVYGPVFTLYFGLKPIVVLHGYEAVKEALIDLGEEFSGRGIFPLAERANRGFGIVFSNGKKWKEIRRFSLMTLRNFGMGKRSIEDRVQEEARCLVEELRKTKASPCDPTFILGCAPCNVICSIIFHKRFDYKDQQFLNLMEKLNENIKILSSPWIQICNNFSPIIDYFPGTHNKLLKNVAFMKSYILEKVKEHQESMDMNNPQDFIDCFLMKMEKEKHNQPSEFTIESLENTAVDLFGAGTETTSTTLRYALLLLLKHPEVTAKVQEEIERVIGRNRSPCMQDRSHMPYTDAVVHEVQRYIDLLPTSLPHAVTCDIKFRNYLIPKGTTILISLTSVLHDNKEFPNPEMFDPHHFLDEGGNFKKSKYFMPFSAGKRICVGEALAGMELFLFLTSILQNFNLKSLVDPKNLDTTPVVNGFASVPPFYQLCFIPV
Sequence of P2Y purinoceptor 1 (P47900 whole entry): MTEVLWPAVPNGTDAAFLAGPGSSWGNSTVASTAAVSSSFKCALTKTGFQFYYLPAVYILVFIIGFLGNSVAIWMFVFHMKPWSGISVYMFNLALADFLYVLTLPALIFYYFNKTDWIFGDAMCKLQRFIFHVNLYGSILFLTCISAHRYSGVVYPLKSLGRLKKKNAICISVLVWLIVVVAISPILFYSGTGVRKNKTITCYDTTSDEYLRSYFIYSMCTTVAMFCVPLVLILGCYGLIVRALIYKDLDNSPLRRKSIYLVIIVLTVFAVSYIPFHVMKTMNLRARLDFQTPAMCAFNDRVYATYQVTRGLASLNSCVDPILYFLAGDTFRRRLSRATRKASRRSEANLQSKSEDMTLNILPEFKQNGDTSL
Sequence of P2Y purinoceptor 6 (Q15077 whole entry): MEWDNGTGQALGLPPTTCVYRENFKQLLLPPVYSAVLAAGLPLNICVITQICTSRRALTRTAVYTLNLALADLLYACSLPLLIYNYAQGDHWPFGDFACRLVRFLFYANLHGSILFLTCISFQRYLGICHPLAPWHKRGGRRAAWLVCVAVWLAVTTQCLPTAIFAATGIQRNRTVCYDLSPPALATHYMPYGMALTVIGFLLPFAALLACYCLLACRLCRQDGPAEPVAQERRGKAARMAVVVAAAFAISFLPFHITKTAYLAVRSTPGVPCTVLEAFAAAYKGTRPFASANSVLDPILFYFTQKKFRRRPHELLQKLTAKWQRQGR

Regarding `O=C(O)c1cc(-c2ccc(C3CCNCC3)cc2)c2ccc(-c3ccc(C(F)(F)F)cc3)cc2c1` [PPTN], the time to peak (Tmax) was 8 min in [1] (iv, 10 mg/kg, 24 h) and 17 min in data set [8]. In addition, the Cmax in data set [2] (iv, 10 mg/kg, 24 h) turned out to be 1024 ng/mL; in [5], 1540 ng/mL. Further, the AUC in [3] (iv, 10 mg/kg, 24 h) was 2411 ng·h/mL; in data set [6] (po, 20 mg/kg, 24 h) it was 3001 ng·h/mL. The t1/2 in data set [4] (iv, 10 mg/kg, 24 h) is 12 min. Moreover, the Activity turned out to be 8.93% in data set [7] and 58.7% in [9]. Further, in [10], the CL/F was found to be 22.1 mL/min/kg. In addition, the F in [11] (po, 20 mg/kg, 24 h) stood at 12%. In addition, in [12], the half-life was 24 min. In data set [13], the clearance was determined as 11.5 mL/min/kg.
Take `COC(=O)c1cc(NC(=O)Cc2ccc(C)cc2)cc(-c2nc3ccccc3[nH]2)c1`: the microsomal CLint in data set [14] was found to be 25.6 µL/min/mg. Also, the Tmax was 19 min in data set [1] (male, Sprague-Dawley, read-out: Tmax (converted)) and 26 min in [8]. For the same compound, the Cmax was determined as 964 ng/mL in [2] (male, Sprague-Dawley, read-out: Cmax) and 1940 ng/mL in data set [5]. Also, the Activity entry in data set [15] was “Non-toxic”. The half-life in [16] is > 50 h; in [4] (male, Sprague-Dawley), 48 min; in [20], 354 min; in data set [25], > 300 min; in [12] it was 96 min. For the same compound, the AUC(0-t) at 24 h in data set [3] (male, Sprague-Dawley) is 895 ng·h/mL; in data set [6] (male, Sprague-Dawley), 1120 ng·h/mL. The IC50 in data set [17] was > 100 µM; in [18] it was > 30 µM; in [19], > 100 µM; in data set [21], > 30 µM; in [22], > 30 µM; in [23], 47.6 µM. For the same compound, the concentration for half-maximal inhibition (IC50) in [24] is > 100 µM; in [26] it was > 30 µM; in data set [27], > 100 µM; in [28], > 30 µM. The compound further had an apparent clearance (CL/F) in [10] of 46.5 mL/min/kg. Besides, the bioavailability in data set [11] (male, Sprague-Dawley) worked out at 38%. The same compound yielded a clearance in data set [13] of 26.1 mL/min/kg.
